pEC50, pIC50: −log10 of the molar value.
Tests used:
TGFBR2 = biological target: T1, TGFBR2 (Homo sapiens, UniProt P37173); assay: TGFBR2 RBC assay (enzyme inhibition assay, Reaction Biology Corp.); type: biochemical
T1 construct: purchased Reaction Biology Corp
Procedure: Compounds of the disclosure were also assayed by Reaction Biology Corp. using the TGFBR2 RBC assay (enzyme inhibition assay). […] NT refers to not tested.

[1] = system: TGFβ/SMAD Signaling Pathway SBE reporter cell line; assay: TGFβ reporter assay, in vitro small molecule screening (luciferase); type: cell-based; conditions: TGFβ stimulation, luminescence
Procedure: TGFβ/SMAD Signaling Pathway SBE reporter cell line was obtained from BPS Bioscience. Cells were passed, expanded, and stored in liquid nitrogen as per the supplier's instructions with the exception that growth media is changed to DMEM-C with Geneticin (DMEM supplemented with 10% fetal bovine serum, 1×NEAA, 1 mM Pyruvate, 2 mM glutamine, 50 μg/mL penicillin, 50 U/mL streptomycin and 400 μg/mL of Geneticin). The assay media was MEM supplemented with 0.5% fetal bovine serum, 1×NEAA, 1 mM Pyruvate, 50 μg/mL penicillin and 50 U/mL streptomycin.
Test samples (at desired concentrations diluted in assay media) were added to a 96-well assay plate, 20 μL per well. Reporter cells were harvested from the tissue culture flasks by incubation in small quantity of PBS at 37° C. for two minutes after the media in the flask is removed and cells rinsed with PBS. Cells were counted and diluted in the assay media at approximately 0.5×10^6 cells/mL and then 80 μL/well of cells were added to the assay plate containing the 20 μL/well of test samples (or media only), and incubated for approximately 5-6 hours at 37° C. in a 5% CO2 humidified incubator. After that time, 15 μL of TGFβ diluted to 12 ng/mL in the assay media was added to the plate. Controls included TGFβ titration (from 50 to 0 ng/mL) without inhibitors, and media only (without cells, inhibitor or TGFβ). Plates were incubated at 37° C. in a 5% CO2 humidified incubator for 18 h. Luciferase substrate solution is subsequently added at 100 μL per well, incubated in the dark at room temperature for 15 min, and luminescence is measured using a luminometer. EC50 values and curve fits were obtained using Prism (GraphPad Software).

T1 sequence (P37173 23-567): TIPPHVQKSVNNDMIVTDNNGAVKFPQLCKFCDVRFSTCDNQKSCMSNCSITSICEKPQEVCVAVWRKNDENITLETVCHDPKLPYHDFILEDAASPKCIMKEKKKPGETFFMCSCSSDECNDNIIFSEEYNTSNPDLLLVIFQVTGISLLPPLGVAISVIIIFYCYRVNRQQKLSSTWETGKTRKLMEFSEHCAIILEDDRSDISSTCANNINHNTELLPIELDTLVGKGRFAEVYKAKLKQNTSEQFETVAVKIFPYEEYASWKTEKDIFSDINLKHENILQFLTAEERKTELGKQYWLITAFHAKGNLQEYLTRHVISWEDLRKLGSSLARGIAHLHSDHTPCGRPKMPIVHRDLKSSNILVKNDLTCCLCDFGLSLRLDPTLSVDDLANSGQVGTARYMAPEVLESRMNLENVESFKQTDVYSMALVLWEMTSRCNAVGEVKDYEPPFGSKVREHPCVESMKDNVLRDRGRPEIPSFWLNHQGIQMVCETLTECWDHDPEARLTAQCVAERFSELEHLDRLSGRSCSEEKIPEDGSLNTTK

SMILES | pIC50 (TGFBR2) | pEC50 [1]
Nc1ncc(-c2ccc(Cl)cc2)nc1C(=O)Nc1cnccc1N1CCOCC1 [Compound 160] | > 7.30 | 6.00 to 7.00
CC(COc1ccc(-c2cnc(N)c(C(=O)Nc3cnccc3N3CCOCC3)n2)cc1)NC(=O)OC(C)(C)C (stereo not shown) [Compound 204] | > 7.30 | < 6.00
CC(C)[C@H](NC(=O)OC(C)(C)C)C(=O)N1CCC[C@H]1C(=O)NCc1ccc(-c2cnc(N)c(C(=O)Nc3cnccc3N3CCOCC3)n2)cc1 [Compound 111] | > 7.30 | 6.00 to 7.00
Nc1ncc(-c2ccc(C[C@H](N)CO)cc2)nc1C(=O)Nc1cnccc1N1CCOCC1 [Compound 210] | > 7.30 | 6.00 to 7.00
Cc1nccn1-c1ccncc1NC(=O)c1nc(-c2ccc(CCN)cc2)cnc1N [Compound 4.1, 3-Amino-6-(4-(2-aminoethyl)phenyl)-N-(4-(2-methyl-1H-imidazol-1-yl)pyridin-3-yl)pyrazine-2-carboxamide] | > 7.30 | 6.00 to 7.00
C[C@H](NC(=O)OCC1c2ccccc2-c2ccccc21)C(=O)NCc1ccc(-c2cnc(N)c(C(=O)Nc3cnccc3N3CCOCC3)n2)cc1 [Compound 105] | 6.00 to 7.00 | 6.00 to 7.00
CCOC(=O)[C@@H]1CN(Cc2ccccc2)C[C@H]1c1ccc(-c2cnc(N)c(C(=O)Nc3cnccc3N3CCOCC3)n2)cc1 [Compound 226] | > 7.30 | 6.00 to 7.00
Nc1ncc(-c2ccc(CCNC(=O)OCc3ccccc3)cc2)nc1C(=O)Nc1cnccc1N1CCOCC1=O [Compound 35] | 6.00 to 7.00 | 6.00 to 7.00
CC(C)(C)OC(=O)N[C@H]1CCN(c2ccc(-c3cnc(N)c(C(=O)Nc4cnccc4N4CCOCC4)n3)cc2)C1 [Compound 273] | > 7.30 | 6.00 to 7.00
CC(C)(C)OC(=O)N1CCCc2cc(-c3cnc(N)c(C(=O)Nc4cnccc4N4CCOCC4)n3)ccc2C1 [Compound 228] | 7.00 to 7.30 | 6.00 to 7.00
NCCCc1ccc(-c2cnc(N)c(C(=O)Nc3cnccc3N3CCOCC3)c2)cc1 [Compound 69] | < 6.00 | < 6.00
COc1cccc(-c2ccncc2NC(=O)c2nc(-c3ccc(CCNC(=O)OCc4ccccc4)cc3)cnc2N)c1 [Compound 24] | 6.00 to 7.00 | 6.00 to 7.00
C[C@H]1CN(c2ccncc2NC(=O)c2nc(-c3ccc(CCNC(=O)OCc4ccccc4)cc3)cnc2N)CCO1 [Compound 28] | 6.00 to 7.00 | 6.00 to 7.00
Nc1ncc(N2CCC3(CCNCC3)C2)nc1C(=O)Nc1cnccc1N1CCOCC1 [Compound 114] | < 6.00 | < 6.00
CC(CNC(=O)OC(C)(C)C)Oc1ccc(-c2cnc(N)c(C(=O)Nc3cnccc3N3CCOCC3)n2)cc1 (stereo not shown) [Compound 206] | > 7.30 | 6.00 to 7.00
CC(CN)Oc1ccc(-c2cnc(N)c(C(=O)Nc3cnccc3N3CCCOCC3)n2)cc1 (stereo not shown) [Compound 256] | 7.00 to 7.30 | 6.00 to 7.00
Nc1ncc(-c2ccc(OC3CCN(C(=O)OCc4ccccc4)CC3)cc2)nc1C(=O)Nc1cnccc1N1CCOCC1 [Compound 166] | 6.00 to 7.00 | 6.00 to 7.00
CCc1nccn1-c1ccncc1NC(=O)c1nc(-c2ccc(CCNC(=O)OCc3ccccc3)cc2)cnc1N [Compound 141] | > 7.30 | < 6.00
Nc1ncc(-c2ccc(CCNC(=O)OCc3ccccc3)cc2)nc1C(=O)Nc1cnccc1-c1ccnnc1 [Compound 48] | > 7.30 | < 6.00
Nc1ncc(-c2ccc3c(c2)CCCN3)nc1C(=O)Nc1cnccc1N1CCOCC1 [Compound 193] | > 7.30 | 7.00 to 7.30
COC1CCN(c2ccncc2NC(=O)c2nc(-c3ccc(CCNC(=O)OCc4ccccc4)cc3)cnc2N)C1 (stereo not shown) [Compound 53] | < 6.00 | < 6.00
Nc1ncc(-c2cccc(CCNC(=O)OCc3ccccc3)c2)nc1C(=O)Nc1cnccc1N1CCOCC1 [Compound 177] | 7.00 to 7.30 | 6.00 to 7.00
Nc1ncc(-c2ccc(OCC[C@H](NC(=O)OCc3ccccc3)C(=O)O)cc2)nc1C(=O)Nc1cnccc1N1CCOCC1 [Compound 265] | > 7.30 | < 6.00
NCCc1ccc(-c2cnc(N)c(C(=O)Nc3cncc(Cl)c3N3CCOCC3)n2)cc1 [Compound 139] | > 7.30 | 6.00 to 7.00

SMILES | pIC50 (TGFBR2) | pEC50 [1]
Nc1ncc(-c2ccc(CCNC(=O)OCc3ccccc3)cc2)nc1C(=O)Nc1cnccc1-c1ccccn1 [Compound 25] | > 7.30 | 6.00 to 7.00
Nc1ncc(-c2c(Cl)cccc2Cl)nc1C(=O)Nc1cnccc1N1CCOCC1 [Compound 173] | < 6.00 | 6.00 to 7.00
Nc1ncc(-c2ccc(N3CCC(N)CC3)cc2)nc1C(=O)Nc1cnccc1N1CCOCC1 [Compound 279] | > 7.30 | 7.00 to 7.30
Nc1ncc(-c2ccc(CCNC(=O)OCc3ccccc3)cc2)nc1C(=O)Nc1cnccc1-n1cncn1 [Compound 188] | > 7.30 | < 6.00
Nc1ncc(-c2ccc(OC3CNC3)cc2)nc1C(=O)Nc1cnccc1N1CCOCC1 [Compound 219] | > 7.30 | 7.00 to 7.30
NCC1CN(c2ccncc2NC(=O)c2nc(-c3ccc(CCNC(=O)OCc4ccccc4)cc3)cnc2N)CCO1 (stereo not shown) [Compound 30] | 6.00 to 7.00 | < 6.00
CC(C)(C)OC(=O)N[C@@H](Cc1ccc(-c2cnc(N)c(C(=O)Nc3cnccc3N3CCOCC3)n2)cc1)C(=O)O [Compound 207] | > 7.30 | 6.00 to 7.00
Nc1ncc(-c2ccc3c(c2)C(O)CCC3)nc1C(=O)Nc1cnccc1N1CCOCC1 (stereo not shown) [Compound 251] | > 7.30 | 6.00 to 7.00
NCCNC(=O)Cc1ccc(-c2cnc(N)c(C(=O)Nc3cnccc3N3CCOCC3)n2)cc1 [Compound 80] | 7.00 to 7.30 | 6.00 to 7.00
COC1CN(c2ccncc2NC(=O)c2nc(-c3ccc(CCN)cc3)cnc2N)C1 [Compound 98] | < 6.00 | < 6.00
Nc1ncc(-c2ccc(CNC(=O)[C@@H]3CCCN3)cc2)nc1C(=O)Nc1cnccc1N1CCOCC1 [Compound 110] | > 7.30 | 6.00 to 7.00
Nc1ncc(N2CCNCC2)nc1C(=O)Nc1cnccc1N1CCOCC1 [Compound 118] | < 6.00 | < 6.00
CC(C)(C)OC(=O)NCCOc1cccc(-c2cnc(N)c(C(=O)Nc3cnccc3N3CCOCC3)n2)c1 [Compound 183] | > 7.30 | 6.00 to 7.00
NCc1ccc(-c2cnc(N)c(C(=O)Nc3cnccc3N3CCOCC3)n2)cc1 [Compound 7] | > 7.30 | 7.00 to 7.30
NCCc1ccc(-c2cnc(N)c(C(=O)Nc3cnccc3-n3ccnc3-c3ccccc3)n2)cc1 [Compound 145] | 6.00 to 7.00 | –
NCCc1ccc(-c2cnc(N)c(C(=O)Nc3cncc(-c4ccccc4[N+](=O)[O-])c3)n2)cc1 [Compound 147] | 7.00 to 7.30 | –
Nc1ncc(-c2ccc(CCNC(=O)OCc3ccccc3)cc2)nc1C(=O)Nc1cnccc1-n1ccnc1-c1ccccc1 [Compound 146] | 6.00 to 7.00 | –
NCCN(CCO)c1ccc(-c2cnc(N)c(C(=O)Nc3cnccc3N3CCOCC3)n2)cc1 [Compound 292] | – | 6.00 to 7.00
Nc1ncc(-c2ccc(N3CCN(CCO)CC3)cc2)nc1C(=O)Nc1cnccc1N1CCOCC1 [Compound 289] | – | 7.00 to 7.30
Nc1ncc(-c2ccc(N3CCC[C@@H](N)C3)cc2)nc1C(=O)Nc1cnccc1N1CCOCC1 [Compound 283] | – | 6.00 to 7.00
CN(c1ccc(-c2cnc(N)c(C(=O)Nc3cnccc3N3CCOCC3)n2)cc1)C1CCN(C(=O)OC(C)(C)C)CC1 [Compound 291] | – | 6.00 to 7.00
CC(=O)c1ccc(C(=O)NCCc2ccc(-c3cnc(N)c(C(=O)Nc4cnccc4N4CCOCC4)n3)cc2)cc1 [Compound 58] | – | 6.00 to 7.00
Nc1ncc(-c2ccc(OCCNC(=O)OCc3ccccc3)cc2)nc1C(=O)Nc1cnccc1N1CCOCC1 [Compound 45] | > 7.30 | –

Source: US20220362396A1, “AMINO-PYRAZINECARBOXAMIDE COMPOUNDS, CONJUGATES, AND USES THEREOF” (Silverback Therapeutics, Inc., priority 2018, published 2022)
